In article PMC12498388, “Niraparib Demonstrates Therapeutic Potential in Multiple Sclerosis through Inhibition of IL-17A Receptor Interaction and Promotion of Remyelination” (ACS Chemical Neuroscience, 2025) one finds IC50 and SEAP release of HEK-Blue IL-17 reporter cells (QUANTI-Blue, 630 nm) with IL-17A; percent inhibition by the small molecule Niraparib, 1 nM to 100 uM (22% data, which are given here for two compounds.

As usually defined, the IC50 is the concentration at which inhibition is half-maximal.

For assay [1], the target named is T1, IL-17A with IL-17RA/IL-17RC receptor (HEK-Blue IL-17 reporter cells) (Homo sapiens, UniProt Q16552).
T1 construct: gene IL17A; IL-17A ligand supplied by the manufacturer, added to HEK 293 cells stably transfected with IL-17RA/IL-17RC heterodimeric receptor and Act1 adaptor; SEAP reporter (NF-kB/AP-1); with Interleukin-17 receptor A; Interleukin-17 receptor C
The assay is described as follows: SEAP reporter assay in HEK-Blue IL-17 cells, QUANTI-Blue […] nm. The format is cell-based. Particulars: IL-17A-stimulated cells, 37 °C overnight, 1 nM to 100 μM, four-parameter fit; indirect downstream reporter read-out (NF-kB/AP-1), binding site not shown experimentally.

The target in assay [2] is IL-17RA/IL-17RC heterodimeric receptor (UniProt Q96F46).

IL-17A, sequence (Q16552 24-155): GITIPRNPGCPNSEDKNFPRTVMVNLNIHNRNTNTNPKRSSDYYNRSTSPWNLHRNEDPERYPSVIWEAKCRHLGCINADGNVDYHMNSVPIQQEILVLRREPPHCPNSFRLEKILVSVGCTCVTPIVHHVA

Take `NC(=O)c1cccc2cn(-c3ccc([C@@H]4CCCNC4)cc3)nc12` [Niraparib]: the IC50 in assay [1] turned out to be 70 µM. On to “IL-17A (from UniProt Q16552 24-155) (ligand)”, for which the SEAP release of HEK-Blue IL-17 reporter cells (QUANTI-Blue, 630 nm) with IL-17A; percent inhibition by the small molecule Niraparib, 1 nM to 100 uM (22% at 1 uM, 51% at 10 uM, 99.3% at 100 uM) in assay [2] is 99.3%.
